Assay results published in patent US20260183269A1, “PHARMACEUTICAL COMPOSITION FOR PREVENTION OR TREATMENT OF DRUG-RELATED PEPTIC ULCER COMPRISING ZASTAPRAZAN OR PHARMACEUTICALLY ACCEPTABLE SALT THEREOF” (priority 2022, published 2026).

Legend:
[1] = Clinical PK interaction, PART 1: zastaprazan and aceclofenac in healthy subjects; assay type: in vivo, human (healthy subjects); details: for Cmax / AUC(0-t): human, oral; for Cmax: n = 22, plasma, mean ± SD; for AUC(0-t): plasma, n = 22, mean ± SD
Description: (§1) Zastaprazan may be used not only for acid-related gastric diseases but also for preventing gastric damage caused by NSAIDs.
(§2) • JP-1366, 20 mg 2 capsules (zastaprazan citrate salt 40 mg)
• Aertal tablet (aceclofenac 100 mg)
Subjects who volunteered for PART 1 were assigned a subject number on the day before the first clinical trial drug administration (−1 d) of Period 1, and then administered one aceclofenac tablet on 1 d of Period 1, administered two JP-1366 capsules on 4 d to 8 d of Period 2, and co-administered two JP-1366 capsules and one aceclofenac tablet on 9 d of Period 3. Blood samples were collected from each subject at a designated time for the PK evaluation of the clinical trial drug, and all subjects underwent safety evaluation according to the designated schedule.
(§3) Blood samples were collected at designated times for the PK evaluation of zastaprazan (JP-1366).

[2] = Clinical PK interaction, PART 2: zastaprazan and meloxicam in healthy subjects; assay type: in vivo, human (healthy subjects)
Description: as §1, §2
• Mobic capsule 15 mg (meloxicam 15 mg)
Subjects who volunteered for PART 2 were assigned a subject number on the day before the first clinical trial drug administration (−1 d) of Period 1, and then administered two JP-1366 capsules on 1 d to 5 d of Period 1, administered one meloxicam capsule on 15 d to 19 d of Period 2, and co-administered two JP-1366 capsules and one meloxicam capsule on 22 d to 26 d of Period 3. Blood samples were collected from each subject at a designated time for the PK evaluation of the clinical trial drug, and all subjects underwent safety evaluation according to the designated schedule.
as §3

[3] = system: rat gastric damage model induced by naproxen; experiment: Antiulcer activity in naproxen-induced acute peptic ulcer (gastric damage) rat model; assay type: in vivo, Male Sprague-Dawley (SD) rat
Description: [table] […] The dose for each individual was converted based on the body weight before administration, and is administered orally in a dosage of 5 ml per kg of body weight. […] Administration frequency and administration period: Once a day for five days (a total of 5 times) After the test, the gastric damage by the test substance was evaluated using the ulcer index. […] The removed stomach was incised along the greater curvature, the contents are removed, and the incised stomach was washed cleanly with saline solution, spread out well with a cotton swab, fixed with pins, and then photographed. The gastric damage area and the total stomach area were measured from the photographed stomach using an image program (Leica Application Suite V4), and the ulcer index was calculated as Ulcer index (%)=Damage area (mm^2)/Total area (mm^2)×100. The experimental results were statistically analyzed through Mann-Whitney analysis using a commercial statistical processing program (IBM SPSS Statistics version 25.0).

clinical = assay type: in vivo, human (healthy subjects)
Description: as §2
Blood samples were collected from each subject at a designated time for the PK evaluation of the clinical trial drug, and all subjects underwent safety evaluation according to the designated schedule.
as §3

[4] = Safety evaluation of zastaprazan with aceclofenac, meloxicam, or naproxen in healthy subjects; assay type: in vivo, human (healthy subjects); details: zastaprazan 40 mg alone and co-administered with aceclofenac 100 mg, meloxicam 15 mg or naproxen 500 mg
Text: Zastaprazan may be used not only for acid-related gastric diseases but also for preventing gastric damage caused by NSAIDs. […] Blood samples were collected from each subject at a designated time for the PK evaluation of the clinical trial drug, and all subjects underwent safety evaluation according to the designated schedule. All subjects who completed the clinical trial underwent a post-study visit on 14 d to 20 d, including vital sign measurement, physical examination, adverse reaction check, confirmation of prior/concurrent medication, clinical laboratory tests, and electrocardiography. […] Blood samples were collected from each subject at a designated time for the PK evaluation of the clinical trial drug, and all subjects underwent safety evaluation according to the designated schedule. All subjects who completed the clinical trial underwent a post-study visit on 31 d to 37 d, including vital sign measurement, physical examination, adverse reaction check, confirmation of prior/concurrent medication, clinical laboratory tests, and electrocardiography. […] Blood samples were collected from each subject at a designated time for the PK evaluation of the clinical trial drug, and all subjects underwent safety evaluation according to the designated schedule. […]

## O=C(O)COC(=O)Cc1ccccc1Nc1c(Cl)cccc1Cl [Aceclofenac, aceclofenac, reference compound]
[1]; A (aceclofenac 100 mg alone), read-out: aceclofenac Cmax, SS
  Cmax: 10.1 ± 3.16 µg/mL
[1]; Z + A (zastaprazan 40 mg and aceclofenac 100 mg), read-out: aceclofenac Cmax, SS
  Cmax: 11.8 ± 2.56 µg/mL
[1]; A (aceclofenac 100 mg alone), read-out: aceclofenac AUCT, SS
  AUC(0-t): 20.4 ± 4.87 µg·h/mL
[1]; Z + A (zastaprazan 40 mg and aceclofenac 100 mg), read-out: aceclofenac AUCT, SS
  AUC(0-t): 20.8 ± 3.84 µg·h/mL

## Cc1cnc(NC(=O)C2=C(O)c3ccccc3S(=O)(=O)N2C)s1 [Meloxicam, meloxicam, reference compound]
[2]; human, in vivo, oral, M (meloxicam 15 mg alone), n = 22, mean ± SD, read-out: meloxicam AUCT, SS
  AUC(0-t): 41.8 ± 16.4 µg·h/mL
[2]; human, in vivo, oral, Z + M (zastaprazan 40 mg and meloxicam 15 mg), n = 22, mean ± SD, read-out: meloxicam AUCT, SS
  AUC(0-t): 44.1 ± 18.8 µg·h/mL
[2]; human, oral, M (meloxicam 15 mg alone), n = 22, plasma, mean ± SD, read-out: meloxicam Cmax, SS
  Cmax: 2.48 ± 0.88 µg/mL
[2]; human, oral, Z + M (zastaprazan 40 mg and meloxicam 15 mg), n = 22, plasma, mean ± SD, read-out: meloxicam Cmax, SS
  Cmax: 2.64 ± 0.92 µg/mL

## Cc1cccc(C)c1CNc1cc(C(=O)N2CCC2)cn2c(C)c(C)nc12.O=C(O)CC(O)(CC(=O)O)C(=O)O [Zastaprazan, azetidin-1-yl{8-[(2,6-dimethylbenzyl)amino]-2,3-dimethylimidazo[1,2-a]pyridin-6-yl}methanone citrate salt]
[3]; JP-1366 2 mg/kg oral once a day for five days with naproxen 40 mg/kg, non-fasting rats, stomach removed 4 h after last naproxen
  ulcer area (antiulcer activity), FIG. 1: rapid decrease in the ulcer area
[3]; JP-1366 2 mg/kg vs esomeprazole 2 mg/kg oral, once a day for five days with naproxen 40 mg/kg
  antiulcer efficacy compared with esomeprazole: superior to that of the control substance, esomeprazole
[1]; Z+A to Z
  geometric mean ratio (GMR) [90% CI] of zastaprazan AUCT,SS: 0.9490 (0.9096 to 0.9902)
  geometric mean ratio (GMR) [90% CI] of zastaprazan Cmax,SS: 1.0868 (0.9554 to 1.2362)
[1]; Z (zastaprazan 40 mg alone), read-out: zastaprazan Cmax, SS
  Cmax: 0.242 ± 0.084 µg/mL
[1]; Z (zastaprazan 40 mg alone), read-out: zastaprazan AUCT, SS
  AUC(0-t): 1.54 ± 0.724 µg·h/mL
[1]; Z + A (zastaprazan 40 mg and aceclofenac 100 mg), read-out: zastaprazan AUCT, SS
  AUC(0-t): 1.44 ± 0.627 µg·h/mL
[1]; summary of PART 1
  PK interaction between zastaprazan and aceclofenac: No clinically significant PK interactions
[2]; human, in vivo
  GMR [90% CI] of zastaprazan AUCT,SS: 1.3332 (1.1494 to 1.5463)
[2]; human, in vivo, 40 mg
  AUC(0-t): 1.12 ± 0.534 µg·h/mL
  Cmax: 0.237 ± 0.0728 µg/mL
[2]; summary of PART 2
  PK interaction between zastaprazan and meloxicam: No clinically significant PK interactions
clinical; human, in vivo, oral, Z (zastaprazan 40 mg alone), n = 22, mean ± SD, read-out: zastaprazan AUCT, SS
  AUC(0-t): 1.38 ± 0.695 µg·h/mL
clinical; human, oral, Z (zastaprazan 40 mg alone), n = 22, plasma, mean ± SD, read-out: zastaprazan Cmax, SS
  Cmax: 0.264 ± 0.0885 µg/mL
clinical; summary of PART 3
  PK interaction between zastaprazan and naproxen: No clinically significant PK interactions
[4]
  safety: no safety concerns
